Measured values reported in ChEMBL document CHEMBL5346930, “Discovery of novel N-benzylarylamide-dithiocarbamate based derivatives as dual inhibitors of tubulin polymerization and LSD1 that inhibit gastric cancers” (Eur J Med Chem, 2023).
Activity calls are given as the source filed them.

Legend:
[1] = system: SGC-7901; test: Antiproliferative activity against human SGC-7901 cells assessed as inhibition of cell growth incubated for 48 hrs by MTT assay; type: functional, cell-based; settings: SGC-7901, 48 h
[2] = system: PC-3; test: Antiproliferative activity against human PC-3 cells assessed as inhibition of cell growth incubated for 48 hrs by MTT assay; type: functional, cell-based; settings: PC-3, 48 h
[3] = system: MCF7; test: Antiproliferative activity against human MCF7 cells assessed as inhibition of cell growth incubated for 48 hrs by MTT assay; type: functional, cell-based; settings: MCF7, 48 h
[4] = system: ECa-109 cell line; test: Antiproliferative activity against human EC109 cells assessed as inhibition of cell growth incubated for 48 hrs by MTT assay; type: functional, cell-based; settings: ECa-109, 48 h
[5] = system: TE-1; test: Antiproliferative activity against human TE-1 cells assessed as inhibition of cell growth incubated for 48 hrs by MTT assay; type: functional, cell-based; settings: TE-1, 48 h
[6] = system: GES1; test: Cytotoxicity against human GES1 cells assessed as reduction in cell viability at 0 to 30 nM incubated for 48 hrs by MTT assay; type: toxicity, cell-based; settings: ges1, 48 h, 0.03 µM, dose 0-30 nM
[7] = target: T1, Lysine-specific histone demethylase 1A (Homo sapiens, UniProt O60341); test: Inhibition of recombinant LSD1 (unknown origin) using H3K4me2 peptide as substrate preincubated for 10 mins followed by substrate addition and measured after 30 mins by amplex red based fluorescence microplate reader analysis
[8] = target: T1, Lysine-specific histone demethylase 1A; test: Inhibition of LSD1 in human MGC-803 cells assessed as increase in H3K4me2 expression level at 0 to 24 nmol/L incubated for 48 hrs by Western blot analysis; type: cell-based; settings: dose 0-24 nmol/L
[9] = target: T1, Lysine-specific histone demethylase 1A; test: Inhibition of LSD1 in human SGC-7901 cells assessed as increase in H3K9me1/2 expression level at 0 to 30 nmol/L incubated for 48 hrs by Western blot analysis; type: cell-based; settings: dose 0-30 nmol/L
[10] = system: MGC-803; test: Induction of cell cycle arrest in human MGC-803 cells assessed as accumulation of cells at G2/M phase at 24 nmol/L incubated for 48 hrs (reference value: 33%); type: functional
[11] = system: SGC-7901; test: Induction of cell cycle arrest in human SGC-7901 cells assessed as accumulation of cells at G2/M phase at 30 nmol/L incubated for 48 hrs (reference value: 32%); type: functional
[12] = system: MGC-803; test: Induction of cell cycle arrest in human MGC-803 cells assessed as accumulation of cells at G2/M phase incubated for 48 hrs; type: functional, cell-based; settings: dose 0-24 nmol/L
[13] = system: SGC-7901; test: Induction of cell cycle arrest in human SGC-7901 cells assessed as accumulation of cells at G2/M phase incubated for 48 hrs; type: functional, cell-based; settings: dose 0-30 nmol/L
[14] = system: MGC-803; test: Induction of cell cycle arrest in human MGC-803 cells assessed as downregulation of Wee1 protein expression incubated for 48 hrs by Western blot analysis; type: functional, cell-based; settings: dose 0-24 nmol/L
[15] = system: SGC-7901; test: Induction of cell cycle arrest in human SGC-7901 cells assessed as downregulation of Wee1 protein expression incubated for 48 hrs by Western blot analysis; type: functional, cell-based; settings: dose 0-30 nmol/L
[16] = system: SGC-7901; test: Induction of cell cycle arrest in human SGC-7901 cells assessed as downregulation of CDC2 protein expression incubated for 48 hrs by Western blot analysis; type: functional, cell-based; settings: dose 0-30 nmol/L
[17] = system: SGC-7901; test: Induction of cell cycle arrest in human SGC-7901 cells assessed as reduction in CDC2 phosphorylation at Thr161 residue at 0 to 30 nmol/L incubated for 48 hrs by Western blot analysis; type: functional, cell-based; settings: dose 0-30 nmol/L
[18] = system: SGC-7901; test: Induction of cell cycle arrest in human SGC-7901 cells assessed as reduction in cyclin B1 protein expression incubated for 48 hrs by Western blot analysis; type: functional, cell-based; settings: dose 0-30 nmol/L
[19] = system: MGC-803; test: Induction of cell cycle arrest in human MGC-803 cells assessed as increase in p-Histone H3 protein expression incubated for 48 hrs by Western blot analysis; type: functional, cell-based; settings: dose 0-24 nmol/L
[20] = system: MGC-803; test: Induction of morphological changes in human MGC-803 cells assessed as appearance of bright and shrunken nucleus at 0 to 24 nmol/L incubated for 48 hrs by DAPI staining based analysis; type: functional, cell-based; settings: dose 0-24 nmol/L
[21] = system: SGC-7901; test: Induction of morphological changes in human SGC-7901 cells assessed as appearance of bright and shrunken nucleus at 0 to 30 nmol/L incubated for 48 hrs by DAPI staining based analysis; type: functional, cell-based; settings: dose 0-30 nmol/L
[22] = system: MGC-803; test: Induction of morphological changes in human MGC-803 cells assessed as varied size of nucleus at 0 to 24 nmol/L incubated for 48 hrs by DAPI staining based analysis; type: functional, cell-based; settings: dose 0-24 nmol/L
[23] = system: MGC-803; test: Induction of morphological changes in human MGC-803 cells assessed as appearance of broken nucleus at 24 nM incubated for 48 hrs by DAPI staining based analysis; type: functional, cell-based
[24] = system: SGC-7901; test: Induction of morphological changes in human SGC-7901 cells assessed as appearance of broken nucleus at 30 nM incubated for 48 hrs by DAPI staining based analysis; type: functional, cell-based
[25] = system: MGC-803; test: Induction of DNA damage in human MGC-803 cells assessed as DNA fragmentation by measuring increase in comet tails by fluorescence microscope based comet assay; type: functional, cell-based; settings: dose 0-24 nmol/L
[26] = system: SGC-7901; test: Induction of DNA damage in human SGC-7901 cells assessed as DNA fragmentation by measuring increase in comet tails by fluorescence microscope based comet assay; type: functional, cell-based; settings: dose 0-30 nmol/L
[27] = system: SGC-7901; test: Induction of apoptosis in human SGC-7901 cells assessed as downregulation of Bcl-2 protein expression incubated for 48 hrs by Western blot analysis; type: functional, cell-based; settings: dose 0-30 nmol/L
[28] = system: SGC-7901; test: Induction of apoptosis in human SGC-7901 cells assessed as downregulation of Mcl-1 protein expression incubated for 48 hrs by Western blot analysis; type: functional, cell-based; settings: dose 0-30 nmol/L
[29] = system: SGC-7901; test: Induction of apoptosis in human SGC-7901 cells assessed as activation of caspase-3 at 0 to 30 nmol/L incubated for 48 hrs by Western blot analysis; type: functional, cell-based; settings: dose 0-30 nmol/L
[30] = system: SGC-7901; test: Induction of apoptosis in human SGC-7901 cells assessed as activation of caspase-7 at 0 to 30 nmol/L incubated for 48 hrs by Western blot analysis; type: functional, cell-based; settings: dose 0-30 nmol/L
[31] = system: MGC-803; test: Induction of apoptosis in human MGC-803 cells assessed as increase in cleaved PARP level at 0 to 24 nmol/L incubated for 48 hrs by Western blot analysis; type: functional, cell-based; settings: dose 0-24 nmol/L
[32] = system: MGC-803; test: Inhibition of cell migration in human MGC-803 cells assessed as reduction in rate of wound healing at 4 nmol/L measured after 0 to 48 hrs; type: functional, cell-based; settings: time 0-48 hrs
[33] = system: SGC-7901; test: Inhibition of cell migration in human SGC-7901 cells assessed as reduction in rate of wound healing at 4 nmol/L measured after 0 to 48 hrs; type: functional, cell-based; settings: time 0-48 hrs
[34] = system: MGC-803; test: Inhibition of cell migration in human MGC-803 cells assessed as reduction in number of cells crossing membrane at 4 nmol/L measured after 48 hrs by transwell assay; type: functional, cell-based
[35] = Toxicity in BALB/c nude mouse xenografted with human MGC-803 cells assessed as reduction in body weight at 25 mg/kg/day, ip administered every day for 21 days; type: organism-based; settings: in vivo, 504 h, time 21 day
[36] = system: MGC-803; test: cells; settings: Homo sapiens, MGC-803, 48 h
[37] = system: KYSE-450; test: cells; settings: Homo sapiens, KYSE-450, 48 h
Description: Antiproliferative activity against human KYSE-450 cells assessed as inhibition of cell growth incubated for 48 hrs by MTT assay

[38] = system: MGC-803; test: Antiproliferative activity against human MGC-803 cells assessed as inhibition of cell growth incubated for 48 hrs by MTT assay

COc1ccc(CN(C(=O)CSC(=S)N2CCN(c3ccc(N)cc3)CC2)c2cc(OC)c(OC)c(OC)c2)cc1O
31.4 nM: IC50 [5]
19.5 nM: IC50 [1]
17 nM: IC50 [36]
2810 nM: IC50 [7]
34.4 nM: IC50 [3]
active: inhibition [8] | inhibition [9] | Activity [12] Dose-Dependent Effect | Activity [13] Dose-Dependent Effect | Activity [14] Dose-Dependent Effect | Activity [15] Dose-Dependent Effect | Activity [16] Dose-Dependent Effect | Activity [17] | Activity [18] Dose-Dependent Effect | Activity [19] Dose-Dependent Effect | Activity [20] | Activity [21] | Activity [22] | Activity [23] | Activity [24] | Activity [25] Dose-Dependent Effect | Activity [26] Dose-Dependent Effect | Activity [27] Dose-Dependent Effect | Activity [28] Dose-Dependent Effect | Activity [29] | Activity [30] | Activity [31] | inhibition [32] | inhibition [33] | inhibition [34] | Activity [38] Dose-Dependent Effect
44.6 nM: IC50 [2]
30 nM: IC50 [37]
Non-Toxic: Activity [6] | Activity [35]
60%: Activity [10]
74%: Activity [11]
114 nM: IC50 [4]
